Our source for the EC50 values is BindingDB's records for doi:10.1021/acs.jmedchem.7b00875 (University of Florida, 2017).

This assay addresses Neuronal acetylcholine receptor subunit alpha-7 (Homo sapiens, UniProt P36544). Kind of assay: Partial agonist activity at human alpha7 nAChR expressed in Xenopus laevis oocytes assessed as induction of maximum current response administered for 12 secs followed by washout period for 181 secs by voltage clamp technique.

Each structure is given as a SMILES string.

Chain of Neuronal acetylcholine receptor subunit alpha-7 (P36544 whole entry): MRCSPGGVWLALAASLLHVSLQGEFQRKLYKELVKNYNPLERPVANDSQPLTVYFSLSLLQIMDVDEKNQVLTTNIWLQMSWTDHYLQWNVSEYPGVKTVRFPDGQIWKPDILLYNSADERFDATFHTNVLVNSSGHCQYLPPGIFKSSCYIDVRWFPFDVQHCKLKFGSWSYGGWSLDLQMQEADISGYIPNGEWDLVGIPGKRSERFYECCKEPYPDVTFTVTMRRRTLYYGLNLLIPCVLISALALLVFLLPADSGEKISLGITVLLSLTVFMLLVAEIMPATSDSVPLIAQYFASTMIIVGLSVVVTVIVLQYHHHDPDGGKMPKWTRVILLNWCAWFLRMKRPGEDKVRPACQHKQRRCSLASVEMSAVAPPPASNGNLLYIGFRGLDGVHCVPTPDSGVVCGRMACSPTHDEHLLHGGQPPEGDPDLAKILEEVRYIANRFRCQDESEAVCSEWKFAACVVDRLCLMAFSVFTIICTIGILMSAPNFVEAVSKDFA

On to `CC[N+]1(CC)CCN(c2ccccc2)CC1`, for which the EC50 was determined as 221 µM.

What is called EC50 is the midpoint of the concentration-response curve.
